Measurements taken from paper PMC10336128, “In vitro efficacy of different PEGylation designs on cathelicidin-like peptide with high antibacterial and antifungal activity” (Scientific Reports, 2023).
Where two headings read alike, the source gives them in different places. No end group written: not given here.

Assays:
[1] = system: E. coli ATCC 25922; assay: microbe, parasite or virus in culture; type: cell-based, Escherichia coli
Description: (§1) Staphylococcus aureus (S. aureus ATCC 25923), Escherichia coli (E. coli ATCC 25922), Pseudomonas aeruginosa (P. aeruginosa ATCC 27853), Candida albicans (C. albicans ATCC 10231), methicillin-resistant S. aureus (MRSA, ATCC 33591) and vancomycin-resistant Enteroccus faecium (VRE-faecium, ATCC BAA-2316) were grown in MHA at 37 °C, overnight. A colony was then selected and transferred to MHB. Each bacterial solution in the MHB was adjusted to 0.5 McFarland with OD600 value between 0.08 and 0.1 using UV–Vis spectrophotometer (NanoDrop™ One/OneC Microvolume, Thermo Scientific). Afterward, 0.5 McFarland bacteria cultures were diluted in MHB at a ratio of 1:100. The peptide/conjugate concentration was quantified using a UV–Vis spectrophotometer at 214 nm. Serial dilutions of peptide and conjugates (1024–0.5 µg/mL) were prepared in MHB with a total volume of 95 µL in a round-bottom 96-well plate. Of the prepared bacterial suspensions, 5 µL was added into sample dilutions in each prepared well. Ampicillin (GeneMark) was used as a positive control and bacterial solution alone was used as a negative control. All 96-well plates were incubated overnight at 37 °C, and all samples were prepared in triplicate. Then, samples were measured at 600 nm using a microplate reader (Gen5 Synergy HT BioTek, USA)[31].

[2] = system: P. aeruginosa ATCC 27853; assay: microbe, parasite or virus in culture; type: cell-based, Pseudomonas aeruginosa
Description: as §1

[3] = system: MRSA ATCC 33591; assay: microbe, parasite or virus in culture; type: cell-based, methicillin-resistant S. aureus
Description: as §1

[4] = system: S. aureus ATCC 25923; assay: microbe, parasite or virus in culture; type: cell-based, Staphylococcus aureus
Description: as §1

[5] = system: C. albicans ATCC 10231; assay: microbe, parasite or virus in culture; type: cell-based, Candida albicans
Description: as §1

[6] = system: VRE-faecium ATCC BAA-2316; assay: organism not typed; type: cell-based, vancomycin-resistant Enteroccus faecium
Description: as §1

[7] = MTT cytotoxicity assay; type: cell-based; details: for CC50 at 24 h: human, HaCaT keratinocyte cells; for IC50 at 24 h: mouse
Description: Human skin keratinocyte (HaCaT, HEKa, PCS-200-011™, ATCC) and mouse embryonic fibroblast (3T3, CRL-1658™, ATCC) cells were counted to 5 × 10^4 cells/well in 100 µL of DMEM containing 10% FBS, and 1% Pen/Strep antibiotics were placed in a flat-bottom 96-well plate and incubated in 5% CO2 at 37 °C. After 24 h, the medium on the attached cells was discarded. Serial peptide/conjugate dilutions (1024–0.5 µg/mL) prepared in complete DMEM (100 µL of total volume) in triplicate were added to the cell-seeded plates and incubated in 5% CO2 at 37 °C for 24 h. Cytotoxicity was determined using the 3-(4, 5-dimethylthiazol-2-yl)-2, 5-diphenyltetrazolium bromide assay kit (MTT, Cell Proliferation Kit, Roche) following the kit procedure and measured at 550 nm and 690 nm using a microplate reader. Cytotoxicity was calculated according to the cell control samples in complete DMEM.

[8] = system: human erythrocytes; assay: Cell-associated hemolytic activity assay (with S. aureus ATCC 25923); type: cell-based; details: human erythrocytes plus S. aureus ATCC 25923 (5 µL of 1.5 × 10^6 CFU/mL), tris-saline, 37 °C, read at 414 nm, three replicates
Description: (§2) 300 µL of fresh human blood (Acibadem Mehmet Ali Aydinlar University, Istanbul, Turkey) was suspended in 20 mL of sterile tris-saline (150 mM NaCl, 10 mM Tris, pH 7.2) solution and centrifuged 3 times at 1500 rpm for 5 min. Pellet was dissolved with 100 mL of tris-saline and 100 µL blood mix was added into each well of a round-bottom 96-well plate. Serial peptide/conjugate dilutions (1024–0.5 µg/mL) prepared in tris-saline (100 µL of total volume) in triplicate were added on top of the blood mix. 10% DMSO prepared in Triton X-100 treated with blood mix used as a positive control, and the blood mix itself was used as a negative control. The samples were kept on separate round-bottom 96-well plates at 37 °C for 30 min and 1 h, respectively, to examine two different conditions. After incubations, the 96-well plates were centrifuged at 1500 rpm for 10 min. The supernatants were then transferred into a new round-bottom 96-well plate for measurement at 414 nm using a microplate reader. The lysis percentage of the peptide/conjugate was calculated using Eq. (1) as follows:1 Hemolysis%=Sample414nm-Negativecontrol414nm/Positivecontrol414nm-Negativecontrol414nm×100
S. aureus ATCC 25923 bacterial solution in MHB was prepared as in the minimum inhibitory concentration (MIC) experiment. […]

[9] = system: plasma proteases; type: in vitro ADME, human
Description: To separate human plasma, EDTA-treated fresh human blood from a healthy donor (Acibadem Mehmet Ali Aydinlar University, Istanbul, Turkey) was centrifuged at 1500 rpm for 5 min, and the supernatant was collected. The peptide and conjugates were mixed with human plasma to a final concentration of 0.1 mg/mL (1.7 µL, 2048 µg/mL sample completed with plasma) and incubated at 37 °C, 1500 rpm in a shaker. Aliquots were collected after 0 h, 6 h, and 24 h incubation and stored at – 20 °C[32]. 5 µL protease inhibitor was added onto 35 µL aliquots.
S. aureus ATCC 25923 was cultured in MHA overnight at 37 °C. A colony was then selected and transferred to MHB. The bacterial solution was adjusted to 0.5 McFarland with OD600 value between 0.08 and 0.1 using UV–Vis spectrophotometer and diluted to a 1:200 ratio in MHB. 5 µL of the bacterial suspension was added into serial dilutions of aliquots prepared in MHB (40 µL of total volume) in a round-bottom 96-well plate and incubated overnight at 37 °C. Afterward, 96-well plates were measured at 600 nm using a microplate reader. All samples were prepared in triplicate.

[10] = system: human erythrocytes; assay: Hemolytic activity assay; type: cell-based
Description: as §2

CC1(C)S[C@@H]2[C@H](NC(=O)[C@H](N)c3ccccc3)C(=O)N2[C@H]1C(=O)O [Ampicillin, reference compound]
MIC ([1]; Escherichia coli, ATCC25922, E. coli ATCC 25922, serial dilution in MHB, 96-well, overnight 37 °C, OD 600 nm, triplicate, same results in all replicates, mass of whole conjugate, read-out: Minimum Inhibitory Concentration): 32 µg/mL | MIC ([2]; Pseudomonas aeruginosa, ATCC27853, P. aeruginosa ATCC 27853, serial dilution in MHB, 96-well, overnight 37 °C, OD 600 nm, triplicate, same results in all replicates, mass of whole conjugate, read-out: Minimum Inhibitory Concentration): 256 µg/mL | MIC ([3]; Staphylococcus aureus, MRSA ATCC 33591, serial dilution in MHB, 96-well, overnight 37 °C, OD 600 nm, triplicate, same results in all replicates, mass of whole conjugate, read-out: Minimum Inhibitory Concentration): 32 µg/mL | MIC ([4]; Staphylococcus aureus, ATCC25923, S. aureus ATCC 25923, serial dilution in MHB, 96-well, overnight 37 °C, OD 600 nm, triplicate, same results in all replicates, mass of whole conjugate, read-out: Minimum Inhibitory Concentration): 8 µg/mL | MIC ([5]; Candida albicans, ATCC10231, C. albicans ATCC 10231, serial dilution in MHB, 96-well, overnight 37 °C, OD 600 nm, triplicate, same results in all replicates, mass of whole conjugate, read-out: Minimum Inhibitory Concentration): 16 µg/mL | MIC ([6]; VRE-faecium ATCC BAA-2316, serial dilution in MHB, 96-well, overnight 37 °C, OD 600 nm, triplicate, same results in all replicates, mass of whole conjugate, read-out: Minimum Inhibitory Concentration): 16 µg/mL

GIGKFLHSAKKFGKAFVGEIMNS [Mag-2, reference compound]
CC50 at 24 h ([7]; HaCaT cells, MTT, 24 h, 37 °C, DMEM 10% FBS, three replicates, maximum concentration tested 512 µg/mL, mass of whole conjugate, read-out: inhibitory concentration (IC50), cytotoxicity): 258 µg/mL | IC50 at 24 h ([7]; 3T3 cells, MTT, 24 h, 37 °C, DMEM 10% FBS, three replicates, mass of whole conjugate, read-out: inhibitory concentration (IC50), cytotoxicity): 153 µg/mL

RLLRLLLRLLR-NH2 [TN6]
HC50, 60 min with S. aureus ATCC 25923 [8]: hemotoxic effect at all doses | Minimum Inhibitory Concentration ([1]; ATCC 25922): 1 µg/mL | Minimum Inhibitory Concentration ([2]; ATCC 27853): 4 µg/mL | MIC after plasma proteases, 0 h ([9]; 0 h): 2.56 µg/mL | MIC after plasma proteases, 6 h ([9]; 6 h): 2.56 µg/mL | MIC after plasma proteases, 24 h ([9]; 24 h): 5.12 µg/mL | Minimum Inhibitory Concentration ([3]; ATCC 33591): 0.78 µg/mL | HC50 (dose killing 50% of the red blood cells), 60 min ([10]; human erythrocytes in tris-saline pH 7.2, 60 min, 37 °C, without bacteria, read at 414 nm, three replicates): hemotoxic effect at all doses | HC50 (dose killing 50% of the red blood cells), 60 min ([10]; pH 7.2): toxic even at 1 µg/mL | hemolysis, 30 min ([10]; pH 7.2): well above the toxic dose (HC50) | Minimum Inhibitory Concentration ([4]; ATCC 25923): 1 µg/mL | Minimum Inhibitory Concentration ([5]; ATCC 10231): 1 µg/mL | CC50 at 24 h [7]: 161 µg/mL | IC50 at 24 h [7]: 14.6 µg/mL | Minimum Inhibitory Concentration ([6]; ATCC BAA-2316): 1.56 µg/mL
